Measurements reported in ChEMBL document CHEMBL4251615, “Discovery of anilino-furo[2,3-d]pyrimidine derivatives as dual inhibitors of EGFR/HER2 tyrosine kinase and their anticancer activity” (Eur J Med Chem, 2018).

These compounds were tested on NCI-H522 (assay: Growth inhibition of human NCI-H522 cells assessed as cell growth at 10 uM incubated for 48 hrs by sulforhodamine B assay relative to control). Details: NCI-H522, 48 h, read-out: Activity.
Assay type: functional
Cc1oc2ncnc(Nc3cccc(Cl)c3)c2c1CO showed a growth at 10 µM of 89.8%. CCOC(=O)c1c(C)oc2ncnc(Nc3ccc(F)cc3)c12 was tested, and the growth at 10 µM was 92.9%.

Each compound was assayed on SK-MEL-2 (assay: Growth inhibition of human SK-MEL-2 cells assessed as cell growth at 10 uM incubated for 48 hrs by sulforhodamine B assay relative to control). Details: SK-MEL-2, 48 h, read-out: Activity.
Assay type: functional
Cc1oc2ncnc(Nc3cccc(Cl)c3)c2c1CO gave a growth at 10 µM of 98.1%. For CCOC(=O)c1c(C)oc2ncnc(Nc3ccc(F)cc3)c12, the growth at 10 µM was 103%.

What follows are compounds tested on PC-3 (assay: Growth inhibition of human PC3 cells assessed as cell growth at 10 uM incubated for 48 hrs by sulforhodamine B assay relative to control). Details: PC-3, 48 h, read-out: Activity.
Assay type: functional
With Cc1oc2ncnc(Nc3cccc(Cl)c3)c2c1CO the growth at 10 µM was 71.3%. CCOC(=O)c1c(C)oc2ncnc(Nc3ccc(F)cc3)c12 gave a growth at 10 µM of 111%.

What follows are compounds tested on BT-549 (assay: Growth inhibition of human BT549 cells assessed as cell growth at 10 uM incubated for 48 hrs by sulforhodamine B assay relative to control). Details: BT-549, 48 h, read-out: Activity.
Assay type: functional
In the case of Cc1oc2ncnc(Nc3cccc(Cl)c3)c2c1CO, the growth at 10 µM is reported as 81.9%. Work on CCOC(=O)c1c(C)oc2ncnc(Nc3ccc(F)cc3)c12 yielded a growth at 10 µM of 98.5%.

What follows are compounds tested on SN12C (assay: Growth inhibition of human SN12C cells assessed as cell growth at 10 uM incubated for 48 hrs by sulforhodamine B assay relative to control). Details: read-out: Activity.
Assay type: functional
For Cc1oc2ncnc(Nc3cccc(Cl)c3)c2c1CO, the growth at 10 µM was 88.6%. CCOC(=O)c1c(C)oc2ncnc(Nc3ccc(F)cc3)c12 was tested, and the growth at 10 µM was 92.9%.

What follows are compounds tested on SF-268 (assay: Growth inhibition of human SF268 cells assessed as cell growth at 10 uM incubated for 48 hrs by sulforhodamine B assay relative to control). Details: SF-268, 48 h, read-out: Activity.
Assay type: functional
Cc1oc2ncnc(Nc3cccc(Cl)c3)c2c1CO showed a growth at 10 µM of 92.9%. CCOC(=O)c1c(C)oc2ncnc(Nc3ccc(F)cc3)c12 showed a growth at 10 µM of 98.5%.

The compounds below were run on NCI-H23 (assay: Growth inhibition of human NCI-H23 cells assessed as cell growth at 10 uM incubated for 48 hrs by sulforhodamine B assay relative to control). Details: NCI-H23, 48 h, read-out: Activity.
Assay type: functional
Cc1oc2ncnc(Nc3cccc(Cl)c3)c2c1CO showed a growth at 10 µM of 87.5%. With CCOC(=O)c1c(C)oc2ncnc(Nc3ccc(F)cc3)c12 the growth at 10 µM was 91.9%.

Each compound was assayed on TK-10 (assay: Growth inhibition of human TK10 cells assessed as cell growth at 10 uM incubated for 48 hrs by sulforhodamine B assay relative to control). Details: TK-10, 48 h, read-out: Activity.
Assay type: functional
Cc1oc2ncnc(Nc3cccc(Cl)c3)c2c1CO was tested, and the growth at 10 µM was 65.2%. Compound CCOC(=O)c1c(C)oc2ncnc(Nc3ccc(F)cc3)c12 has a growth at 10 µM of 96.5%.

Each compound was assayed on A549 (assay: Growth inhibition of human A549/ATCC cells assessed as cell growth at 10 uM incubated for 48 hrs by sulforhodamine B assay relative to control). Details: A549, 48 h, read-out: Activity.
Assay type: functional
With Cc1oc2ncnc(Nc3cccc(Cl)c3)c2c1CO the growth at 10 µM was 82.1%. Compound CCOC(=O)c1c(C)oc2ncnc(Nc3ccc(F)cc3)c12 has a growth at 10 µM of 99.4%.

What follows are compounds tested on OVCAR-3 (assay: Growth inhibition of human OVCAR3 cells assessed as cell growth at 10 uM incubated for 48 hrs by sulforhodamine B assay relative to control). Details: OVCAR-3, 48 h, read-out: Activity.
Assay type: functional
For Cc1oc2ncnc(Nc3cccc(Cl)c3)c2c1CO, the growth at 10 µM was 102%. Work on CCOC(=O)c1c(C)oc2ncnc(Nc3ccc(F)cc3)c12 yielded a growth at 10 µM of 104%.

These compounds were tested on HL-60(TB) (assay: Growth inhibition of human HL-60(TB) cells assessed as cell growth at 10 uM incubated for 48 hrs by sulforhodamine B assay relative to control). Details: HL-60, 48 h, read-out: Activity.
Assay type: functional
Cc1oc2ncnc(Nc3cccc(Cl)c3)c2c1CO was tested, and the growth at 10 µM was 54%.

These compounds were tested on SF-295 (assay: Growth inhibition of human SF295 cells assessed as cell growth at 10 uM incubated for 48 hrs by sulforhodamine B assay relative to control). Details: SF-295, 48 h, read-out: Activity.
Assay type: functional
For Cc1oc2ncnc(Nc3cccc(Cl)c3)c2c1CO, the growth at 10 µM was 93.2%.

The compounds below were run on Malme-3M (assay: Growth inhibition of human MALME-3M cells assessed as cell growth at 10 uM incubated for 48 hrs by sulforhodamine B assay relative to control). Details: read-out: Activity.
Assay type: functional
Cc1oc2ncnc(Nc3cccc(Cl)c3)c2c1CO was tested, and the growth at 10 µM was 88.1%. Compound CCOC(=O)c1c(C)oc2ncnc(Nc3ccc(F)cc3)c12 has a growth at 10 µM of 95.4%.

Each compound was assayed on SNB-19 (assay: Growth inhibition of human SNB19 cells assessed as cell growth at 10 uM incubated for 48 hrs by sulforhodamine B assay relative to control). Details: SNB-19, 48 h, read-out: Activity.
Assay type: functional
Compound Cc1oc2ncnc(Nc3cccc(Cl)c3)c2c1CO has a growth at 10 µM of 87.3%. CCOC(=O)c1c(C)oc2ncnc(Nc3ccc(F)cc3)c12 was tested, and the growth at 10 µM was 91.4%.

These compounds were tested on HCC 2998 (assay: Growth inhibition of human HCC2998 cells assessed as cell growth at 10 uM incubated for 48 hrs by sulforhodamine B assay relative to control). Details: HCC 2998, 48 h, read-out: Activity.
Assay type: functional
For Cc1oc2ncnc(Nc3cccc(Cl)c3)c2c1CO, the growth at 10 µM was 93.2%. Work on CCOC(=O)c1c(C)oc2ncnc(Nc3ccc(F)cc3)c12 yielded a growth at 10 µM of 108%.

Each compound was assayed on OVCAR-4 (assay: Growth inhibition of human OVCAR4 cells assessed as cell growth at 10 uM incubated for 48 hrs by sulforhodamine B assay relative to control). Details: OVCAR-4, 48 h, read-out: Activity.
Assay type: functional
For Cc1oc2ncnc(Nc3cccc(Cl)c3)c2c1CO, the growth at 10 µM was 92.5%. CCOC(=O)c1c(C)oc2ncnc(Nc3ccc(F)cc3)c12 showed a growth at 10 µM of 99.1%.

These compounds were tested on RXF 393 (assay: Growth inhibition of human RXF393 cells assessed as cell growth at 10 uM incubated for 48 hrs by sulforhodamine B assay relative to control). Details: RXF 393, 48 h, read-out: Activity.
Assay type: functional
For Cc1oc2ncnc(Nc3cccc(Cl)c3)c2c1CO, the growth at 10 µM was 85.4%. CCOC(=O)c1c(C)oc2ncnc(Nc3ccc(F)cc3)c12 showed a growth at 10 µM of 99.8%.

What follows are compounds tested on RPMI-8226 (assay: Growth inhibition of human RPMI8226 cells assessed as cell growth at 10 uM incubated for 48 hrs by sulforhodamine B assay relative to control). Details: RPMI-8226, 48 h, read-out: Activity.
Assay type: functional
Compound Cc1oc2ncnc(Nc3cccc(Cl)c3)c2c1CO has a growth at 10 µM of 70.4%. CCOC(=O)c1c(C)oc2ncnc(Nc3ccc(F)cc3)c12 showed a growth at 10 µM of 103%.

Each compound was assayed on HCT-116 (assay: Growth inhibition of human HCT116 cells assessed as cell growth at 10 uM incubated for 48 hrs by sulforhodamine B assay relative to control). Details: HCT-116, 48 h, read-out: Activity.
Assay type: functional
Cc1oc2ncnc(Nc3cccc(Cl)c3)c2c1CO was tested, and the growth at 10 µM was 81.6%. CCOC(=O)c1c(C)oc2ncnc(Nc3ccc(F)cc3)c12 was tested, and the growth at 10 µM was 98.9%.

What follows are compounds tested on HOP-92 (assay: Growth inhibition of human HOP92 cells assessed as cell growth at 10 uM incubated for 48 hrs by sulforhodamine B assay relative to control). Details: HOP-92, 48 h, read-out: Activity.
Assay type: functional
Cc1oc2ncnc(Nc3cccc(Cl)c3)c2c1CO gave a growth at 10 µM of 90.5%. With CCOC(=O)c1c(C)oc2ncnc(Nc3ccc(F)cc3)c12 the growth at 10 µM was 90.8%.

What follows are compounds tested on MDA-MB-435 (assay: Growth inhibition of human MDA-MB-435 cells assessed as cell growth at 10 uM incubated for 48 hrs by sulforhodamine B assay relative to control). Details: MDA-MB-435, 48 h, read-out: Activity.
Assay type: functional
Cc1oc2ncnc(Nc3cccc(Cl)c3)c2c1CO showed a growth at 10 µM of 93.1%. CCOC(=O)c1c(C)oc2ncnc(Nc3ccc(F)cc3)c12 was tested, and the growth at 10 µM was 101%.

What follows are compounds tested on MCF7 (assay: Growth inhibition of human MCF7 cells assessed as cell growth at 10 uM incubated for 48 hrs by sulforhodamine B assay relative to control). Details: MCF7, 48 h, read-out: Activity.
Assay type: functional
Cc1oc2ncnc(Nc3cccc(Cl)c3)c2c1CO gave a growth at 10 µM of 89.7%.

These compounds were tested on HT-29 (assay: Growth inhibition of human HT-29 cells assessed as cell growth at 10 uM incubated for 48 hrs by sulforhodamine B assay relative to control). Details: HT-29, 48 h, read-out: Activity.
Assay type: functional
Cc1oc2ncnc(Nc3cccc(Cl)c3)c2c1CO showed a growth at 10 µM of 90.5%. For CCOC(=O)c1c(C)oc2ncnc(Nc3ccc(F)cc3)c12, the growth at 10 µM was 95.3%.

What follows are compounds tested on NCI-H322M (assay: Growth inhibition of human NCI-H322M cells assessed as cell growth at 10 uM incubated for 48 hrs by sulforhodamine B assay relative to control). Details: read-out: Activity.
Assay type: functional
With Cc1oc2ncnc(Nc3cccc(Cl)c3)c2c1CO the growth at 10 µM was 95%. Work on CCOC(=O)c1c(C)oc2ncnc(Nc3ccc(F)cc3)c12 yielded a growth at 10 µM of 101%.

These compounds were tested on ACHN (assay: Growth inhibition of human ACHN cells assessed as cell growth at 10 uM incubated for 48 hrs by sulforhodamine B assay relative to control). Details: read-out: Activity.
Assay type: functional
Cc1oc2ncnc(Nc3cccc(Cl)c3)c2c1CO gave a growth at 10 µM of 76.7%. With CCOC(=O)c1c(C)oc2ncnc(Nc3ccc(F)cc3)c12 the growth at 10 µM was 99%.

Each compound was assayed on EKVX (assay: Growth inhibition of human EKVX cells assessed as cell growth at 10 uM incubated for 48 hrs by sulforhodamine B assay relative to control). Details: read-out: Activity.
Assay type: functional
Cc1oc2ncnc(Nc3cccc(Cl)c3)c2c1CO showed a growth at 10 µM of 64.4%.

What follows are compounds tested on U-251 (assay: Growth inhibition of human U251 cells assessed as cell growth at 10 uM incubated for 48 hrs by sulforhodamine B assay relative to control). Details: U-251, 48 h, read-out: Activity.
Assay type: functional
Compound Cc1oc2ncnc(Nc3cccc(Cl)c3)c2c1CO has a growth at 10 µM of 92.3%. Compound CCOC(=O)c1c(C)oc2ncnc(Nc3ccc(F)cc3)c12 has a growth at 10 µM of 98%.

Each compound was assayed on 786-0 (assay: Growth inhibition of human 786-0 cells assessed as cell growth at 10 uM incubated for 48 hrs by sulforhodamine B assay relative to control). Details: 786-0, 48 h, read-out: Activity.
Assay type: functional
Cc1oc2ncnc(Nc3cccc(Cl)c3)c2c1CO was tested, and the growth at 10 µM was 78.3%. For CCOC(=O)c1c(C)oc2ncnc(Nc3ccc(F)cc3)c12, the growth at 10 µM was 93.1%.

Each compound was assayed on MDA-MB-231 (assay: Growth inhibition of human MDA-MB-231 cells assessed as cell growth at 10 uM incubated for 48 hrs by sulforhodamine B assay relative to control). Details: MDA-MB-231, 48 h, read-out: Activity.
Assay type: functional
Cc1oc2ncnc(Nc3cccc(Cl)c3)c2c1CO gave a growth at 10 µM of 76.5%. With CCOC(=O)c1c(C)oc2ncnc(Nc3ccc(F)cc3)c12 the growth at 10 µM was 86.8%.

The compounds below were run on MDA-MB-468 (assay: Growth inhibition of human MDA-MB-468 cells assessed as cell growth at 10 uM incubated for 48 hrs by sulforhodamine B assay relative to control). Details: MDA-MB-468, 48 h, read-out: Activity.
Assay type: functional
In the case of Cc1oc2ncnc(Nc3cccc(Cl)c3)c2c1CO, the growth at 10 µM is reported as 69.1%. CCOC(=O)c1c(C)oc2ncnc(Nc3ccc(F)cc3)c12 gave a growth at 10 µM of 103%.

The compounds below were run on MOLT-4 (assay: Growth inhibition of human MOLT4 cells assessed as cell growth at 10 uM incubated for 48 hrs by sulforhodamine B assay relative to control). Details: MOLT-4, 48 h, read-out: Activity.
Assay type: functional
In the case of Cc1oc2ncnc(Nc3cccc(Cl)c3)c2c1CO, the growth at 10 µM is reported as 86.2%.

These compounds were tested on SW-620 (assay: Growth inhibition of human SW620 cells assessed as cell growth at 10 uM incubated for 48 hrs by sulforhodamine B assay relative to control). Details: SW-620, 48 h, read-out: Activity.
Assay type: functional
Cc1oc2ncnc(Nc3cccc(Cl)c3)c2c1CO showed a growth at 10 µM of 93.2%. Work on CCOC(=O)c1c(C)oc2ncnc(Nc3ccc(F)cc3)c12 yielded a growth at 10 µM of 94.9%.

The compounds below were run on Hs-578T (assay: Growth inhibition of human Hs 578T cells assessed as cell growth at 10 uM incubated for 48 hrs by sulforhodamine B assay relative to control). Details: read-out: Activity.
Assay type: functional
Cc1oc2ncnc(Nc3cccc(Cl)c3)c2c1CO was tested, and the growth at 10 µM was 96.2%. CCOC(=O)c1c(C)oc2ncnc(Nc3ccc(F)cc3)c12 gave a growth at 10 µM of 96.1%.
